PubChem BioAssay AID588482 (NMMLSC, 2011)
Active and inactive are the calls of the source.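 Rule for the calls: active = a percent response above zero, which rounds up to a positive score; inactive = the rest.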

These compounds were tested against Beta-adrenergic receptor kinase 1 (Homo sapiens) (UniProt P25098) (assay: inhibition of GRK2-catalyzed rhodopsin phosphorylation – biochemical, set 2, orthogonal assay for GRK2 aptamer-displacement inhibitor project, late-stage follow-up (AID 588482)). Conditions: 32P incorporation, SDS-PAGE, at 200 µM, active compounds read high.
Sequence of Beta-adrenergic receptor kinase 1 (Homo sapiens) (P25098 whole entry, looked up): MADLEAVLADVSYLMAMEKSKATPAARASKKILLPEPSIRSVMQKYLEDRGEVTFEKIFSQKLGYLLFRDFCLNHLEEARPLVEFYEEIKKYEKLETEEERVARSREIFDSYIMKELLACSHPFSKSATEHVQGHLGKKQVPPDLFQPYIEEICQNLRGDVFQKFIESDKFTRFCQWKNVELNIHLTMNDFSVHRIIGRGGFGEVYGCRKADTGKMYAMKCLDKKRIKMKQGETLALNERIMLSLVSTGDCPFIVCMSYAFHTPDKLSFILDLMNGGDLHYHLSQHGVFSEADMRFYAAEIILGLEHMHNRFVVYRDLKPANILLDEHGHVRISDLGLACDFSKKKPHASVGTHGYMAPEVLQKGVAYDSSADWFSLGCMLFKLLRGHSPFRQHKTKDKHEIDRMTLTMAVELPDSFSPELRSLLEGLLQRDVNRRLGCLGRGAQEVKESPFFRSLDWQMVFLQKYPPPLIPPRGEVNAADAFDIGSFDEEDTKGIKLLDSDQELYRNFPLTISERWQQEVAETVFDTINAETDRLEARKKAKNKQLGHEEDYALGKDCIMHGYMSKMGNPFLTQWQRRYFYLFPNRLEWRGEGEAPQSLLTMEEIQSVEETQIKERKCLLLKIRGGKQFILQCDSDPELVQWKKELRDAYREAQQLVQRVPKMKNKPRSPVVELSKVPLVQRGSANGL

SMILES	inhibition
COc1ccc(NC(=O)CCS(=O)(=O)c2ccc(Br)s2)cc1	-90.5% (inactive)
Cc1ccccc1NC(=O)CCS(=O)(=O)c1ccc(Br)s1	-7.11% (inactive)
Cc1cccc(CCNC(=O)CCS(=O)(=O)c2ccc(Br)cc2)c1	-50.6% (inactive)
CC(=O)N1CCN(Cc2nc3cc(Cl)ccc3c(=O)[nH]2)CC1	-20% (inactive)
CCOc1ccccc1NC(=O)CCS(=O)(=O)c1ccc(Br)cc1	0.79%
O=C(CSc1nc2ccccc2c(=O)n1-c1ccccc1)NC(=O)CN1CCCC1=O	-54% (inactive)
O=C(CCS(=O)(=O)c1ccc(Br)cc1)NCc1cccs1	8.45%
COc1ccc(Cl)cc1NC(=O)CCS(=O)(=O)c1ccc(Br)cc1	11%
Cc1cc2ccccc2n1CCNC(=O)C(C)Oc1ccccc1 (stereo not drawn)	-3.83% (inactive)
O=C(CCS(=O)(=O)c1ccc(Br)cc1)Nc1ccc(Br)cc1F	11.4%
CC(CS(=O)(=O)c1ccc2c(c1)NC(=O)CS2)C(=O)NCc1ccccc1Cl (stereo not drawn)	46.8%
C#CCSc1nc2sc3c(c2c(=O)n1C)CCC3	36.7%
COC(=O)c1ccc(NC(=O)CCS(=O)(=O)c2ccc(Br)cc2)cc1	-71.8% (inactive)
CCN(CC)c1ccc(NC(=O)CCS(=O)(=O)c2ccc(Br)cc2)c(C)c1	59.3%
Cc1ccc(CCNC(=O)CCS(=O)(=O)c2ccc(Br)cc2)cc1	-30.2% (inactive)
CCOc1ccc(NC(=O)CCS(=O)(=O)c2ccc(Br)cc2)cc1	-28.6% (inactive)
O=C(O)Cc1ccc(-n2cccc2)cc1	46.5%
COc1ccc([N+](=O)[O-])cc1NC(=O)CCS(=O)(=O)c1ccc(Br)cc1	30.9%
COc1ccc(CCNC(=O)CCS(=O)(=O)c2ccc(Br)cc2)cc1OC	-29.5% (inactive)
COC(=O)c1ccccc1NC(=O)CCS(=O)(=O)c1ccc(Br)s1	-18.3% (inactive)
O=C(CN1CCc2ccccc21)NC(=O)NCc1ccccc1	-42.4% (inactive)
NS(=O)(=O)c1ccc(CCNC(=O)CCS(=O)(=O)c2ccc(Br)cc2)cc1	-15.8% (inactive)
O=C(CCS(=O)(=O)c1ccc(Br)s1)Nc1ccccc1Br	-32.3% (inactive)
